“Also recorded” adds a separate entry of the source. Like-named read-outs stand apart in the source and are kept apart here.
Experiments:
[1] = system: Human Brain Microvascular Endothelial cells (HBMEC); type: cell-based; conditions: for ET induced cortical actin rearrangement: HBMEC, 4 h; for ET-mediated actin remodeling / rearrangement: cultured endothelial cells (HBMEC), summary statement
[2] = system: Human Brain Microvascular Endothelial cells (HBMEC); assay: Medium throughput quantification of whole cell area (CellMask green); type: cell-based; conditions: ET 250 ng/ml, 4 h, 8 wells per treatment (FIG. 2D, 3C)
[3] = system: HBMEC monolayer; assay: Transwell monolayer permeability (Evans blue dye diffusion); type: cell-based, human; conditions: for ET induced disruption of monolayer integrity: HBMEC in transwell inserts, ET 250 ng/ml, 24 h, inhibitor 50 μM (FIG. 2E, 3G)
[4] = system: Rac1; assay: Rac1-GTP pull-down with PAK-Beads and western blot; type: cell-based, human; conditions: HBMEC, ET 250 ng/ml
Method: FIGS. 2A-2E show ET induced actin rearrangement is dependent on Rac1 activation. […] Whole cell lysates were incubated with PAK-Beads, which specifically bind to GTP-bound Rac1. Bead bound Rac1-GTP and total Rac1 levels in cell lysate were determined by western blot with anti-Rac1 antibody. ET induced significant increase in Rac1-GTP (i.e. active Rac1) levels (see FIG. 2B). […] Cells were fixed and stained with cell mask green to visualize cytoplasm. Cell area was quantified from 8 wells for each treatment («-number of cells) using automated image analysis software. […] MRMEC were grown to confluence in transwell inserts, and treated with ET (250 ng/ml) for 24h, in the presence or absence of Rac1 inhibitor NSC23766 (50 μM). Changes in monolayer permeability were assessed by assaying the diffusion of Evans blue dye from apical to basal chamber of transwell inserts. […] Data represent mean changes in monolayer permeability from 2 independent experiments. p value indicates standard deviation.
FIGS. 3A-3H show ET-mediated Rac1 activation and actin rearrangement is dependent on an early induction of IGF-1R, PI3K and MEK signaling. […] Activation of IGF-1R in ET˜ireated and control cells was assessed by monitoring the levels of IGF-1R phosphorylated at Tyrosine 1135 and 1136 relative to total IGF-1R in whole cell lysates by western blot. ET induced a rapid (within 10 minutes), but transient activation of IGF-1R. […] Cells were fixed and stained with CellMask green to visualize cytoplasm. Cell area was quantified from 8 wells for each treatment (n-number of cells) using automated image analysis software. […] Whole cell lysates were incubated with PAK-Beads, which specifically bind to GTP-bound Rac1 . Bead bound Rac1-GTP and total Rac1 levels in cell lysate were determined by western blot with anti-Rac 1 antibody. […] Total and phosphorylated […] (Thr 308 and Ser 473), as well as those of ERK (Thr 202 and Tyr 204) was determined by western blot. ET induced a rapid (within 10-20 minutes) phosphorylation of AKT and ERK. […] Changes in monolayer to permeability were assessed by assaying the diffusion of Evans blue dye from apical to basal chamber of transwell. […] Data represent mean changes in monolayer permeability from 2 independent experiments. p value indicates standard deviation. […] Whole cell lysates were incubated with PAK-Beads, which specifically bind to GTP-hound RacL Bead bound Rac1-GTP and total Rac1 levels in cell lysate were determined by western blot with anti-Rac1 antibody.

[5] = system: CFL1; assay: Western blot of total and phosphorylated CFL1 (Serine 3); type: cell-based, human; conditions: HBMEC
Method: FIGS. 4A-4I show ET induced IGF-1R, MEK and Rac1 signaling activate (dephosphorylate) the actin depolymerizing protein coflin (CFL1). […] ET induced a significant decrease in phosphorylated CFL1. (see FIG. 4B). FIG. 4B show levels of phosphorylated CFL1 relative to total CFL1 quantified from 2 independent experiments. p values indicate standard deviation. […] Total and phosphorylated CFL1 (Serine 3) levels were determined by western blot. […] (see FIG. 4D). FIG. 4D show levels of phosphorylated CFL1 relative to total CFL1 in whole cell lysates from HBMEC treated with ET in the presence or absence of IGF-1R inhibitor AG1024 and quantified from 2 independent experiments. […] Total and phosphorylated CFL1 (Serine 3) levels were determined by western blot. […] Total and phosphorylated CFL1 (Serine 3) levels were determined by western blot. […] (see FIG. 4G). FIG. 4G show levels of phosphorylated CFL1 relative to total CFL1 in whole cell lysates from HBMEC treated with ET in the presence or absence of the Rac1 inhibitor NSC23766 and quantified from 2 independent experiments. p values indicate standard deviation. […] Activation (dephosphorylation) of SSH1 in ET-treated and control cells was assessed by monitoring the levels of SSHI phosphorylated at Serine 978 relative to total SSHI in whole cell lysates by western blot. SSHI phosphorylation was reduced relative to untreated control cells at 240 min after ET treatment. […] Total and phosphorylated CFL1 (Serine 3) levels were determined by western blot.

[6] = system: ET-induced footpad swelling (edema); assay: Mouse footpad swelling (edema) assay after ET injection; type: in vivo, mice; conditions: for protection against ET-induced footpad swelling (edema): in vivo mouse model, pre-treated mice, summary statement; for footpad swelling (edema) following ET injection: mice, 0.15 μg ET/paw (FIG. 5)
[7] = ET 250 ng/ml, phalloidin (FIG. 3B, 3F)
[8] = cultured HBMEC model, summary statement
[9] = ET 250 ng/ml, 4 h (FIG. 4C, 4E, 4I)

For `CC(C)(C)c1cc(C=C(C#N)C#N)cc(Br)c1O` [AG1024, 2-[(3-bromo-5˜iert-butyl-4-hydroxyphenyl)methylidene]propanedinitile], the “ET induced cortical actin rearrangement” value [1, 7] was “almost completely inhibited”, the “ET-mediated actin remodeling / rearrangement” value [1] was “strongly inhibit; also recorded: almost completely rescue” and the “ET induced cell area reduction” value [2] was “completely .rescued”. For the same compound, the “ET-mediated cell-cell barrier disruption” value [3, 8] was “almost completely rescue”, the “ET induced Rac1 activation (Rac1-GTP)” value ([4]; 4 h (FIG. 3D)) was “completely rescued” and the “ET induced Rac1 activation (Rac1-GTP)” value ([4]; 4 h (FIG. 3H)) was “significantly inhibited”. For the same compound, the “ET induced CFL1 activation (dephosphorylation)” value (“ET induced CFL1 activation” below) [5, 9] was “significantly inhibited”, the “protection against ET-induced footpad swelling (edema)” value (“protection” for short) [6] was “near complete protection; also recorded: almost complete protection” and the “footpad swelling (edema) following ET injection” value ([6]; pre-treatment 10 mg/kg) was “consistently block”.

For `O=C(NC[C@H](O)CO)c1ccncc1Nc1ccc(I)cc1F` [AS703026], the “ET induced cortical actin rearrangement” value [1, 7] was “significantly reduced”, the “ET-mediated actin remodeling / rearrangement” value [1] was “strongly inhibit; also recorded: almost completely rescue” and the “ET induced disruption of monolayer integrity” value [3] was “significantly reduced”. For the same compound, the “ET-mediated cell-cell barrier disruption” value [3, 8] was “almost completely rescue”, the “ET induced Rac1 activation (Rac1-GTP)” value ([4]; 4 h (FIG. 3H)) was “significantly inhibited” and the “ET induced CFL1 activation” value [5, 9] was “significantly inhibited”. The “protection” value [6] was “near complete protection; also recorded: almost complete protection” and the “footpad swelling (edema) following ET injection” value ([6]; pre-treatment 33 mg/kg) was “consistently block”.

With `CC(C)(C)c1cc(C(=O)/C(C#N)=N/Nc2cccc(Cl)c2)no1` [ES1-09] the “footpad swelling (edema) following ET injection” value ([6]; pre-treatment 10 mg/kg) was “consistently block”.

In the case of `CS(=O)(=O)N1CCN(Cc2cc3nc(-c4cccc5[nH]ncc45)nc(N4CCOCC4)c3s2)CC1` [GDC-0941, pictilisib], the “ET-mediated cell-cell barrier disruption” value [3] is reported as “almost completely rescue”, the “protection” value [6] is reported as “near complete protection; also recorded: almost complete protection” and the “footpad swelling (edema) following ET injection” value ([6]; pre-treatment 75 mg/kg) is reported as “consistently block”.

In the case of `CCN(CC)CCCC(C)Nc1nc(C)cc(Nc2ccc3nc(C)cc(N)c3c2)n1.Cl.Cl.Cl` (stereo not shown) [NSC23766, N(6)˜[2-[[4˜(diethylamino)-1-methylbutyl]amino]-6-methyl-4-pyrimidinyl]-2-methyl-4,6-quinolinediamine trihydrochloride], the “ET induced cortical actin rearrangement” value ([1]; ET 250 and 500 ng/ml, Alexa 488 phalloidin (FIG. 2C)) is reported as “almost completely inhibited”, the “ET-mediated actin remodeling / rearrangement” value ([1]; trihydrochloride) is reported as “strongly inhibit; also recorded: almost completely rescue” and the “ET induced cell area reduction” value [2] is reported as “significantly reduced”. The “ET induced disruption of monolayer integrity” value [3] was “significantly reduced”, the “ET-mediated cell-cell barrier disruption” value [3, 8] was “almost completely rescue” and the “ET induced Rac1 activation (Rac1-GTP)” value ([4]; 4 h (FIG. 3D)) was “completely rescued”. For the same compound, the “ET induced CFL1 activation” value [5, 9] was “significantly inhibited”, the “ET induced CFL1 activation” value ([5]; ET 50, 100 and 250 ng/ml, 4 h (FIG. 4F)) was “significantly inhibited” and the “protection” value ([6]; trihydrochloride) was “near complete protection; also recorded: almost complete protection”. The “footpad swelling (edema) following ET injection” value ([6]; pre-treatment 10 mg/kg) was “consistently block”.

Source: patent US20220160723A1, “PHARMACOLOGICAL MITIGATION OF LATE-STAGE TOXEMIA” (priority 2019, published 2022)
